Structures are written as SMILES.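 Where inhibition never reached the appropriate level, the endpoint shown equals the highest concentration tested. Otherwise, values were interpolated linearly from a five-concentration, 48-hour dose response in 96-well plates. At the GI50, growth is halved. The concentration for full growth arrest is given as TGI.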 A value given as a limit tells only on which side of the number the result lay.

Among the test systems are OVCAR-5 ovarian; NCI-H23 lung; UACC-62 melanoma; CCRF-CEM leukemia; SF-268 CNS; OVCAR-3 ovarian; U251 CNS; HT29 colon; RPMI-8226 leukemia; COLO 205 colon.
Holding throughout (assay): NCI tumour cell line growth inhibition, 48 h

As for `COC(=O)C1=C(O)C(C(=O)OC)[C@@]2(O)[C@@H](C(=O)OC)CC[C@@H]1[C@@H]2C(=O)OC` (some centres not stated), the TGI is 70.2 µM in the assay on OVCAR-5 ovarian; 56.6 µM with NCI-H23 lung; greater than 100 µM with UACC-62 melanoma; greater than 100 µM with CCRF-CEM leukemia; 75.5 µM in the assay with SF-268 CNS; 58.8 µM in the assay on OVCAR-3 ovarian. The figures for the TGI with U251 CNS, with HT29 colon and with RPMI-8226 leukemia were 64.6 µM, greater than 100 µM and 97.3 µM, respectively.
For `COc1cc(Cc2ccc3c(c2C#N)N(C)c2ccccc2S3)cc(OC)c1OC`, the TGI with OVCAR-5 ovarian, in the assay with NCI-H23 lung, in the assay with CCRF-CEM leukemia, in the assay on SF-268 CNS, with OVCAR-3 ovarian and with U251 CNS was greater than 100 µM throughout. Also, the TGI in the assay on HT29 colon, with COLO 205 colon and in the assay with RPMI-8226 leukemia was greater than 100 µM throughout.
Turning to `C/C(=N\NC(=S)Nc1ccc(Cl)cc1)c1nc2ncccc2[nH]1`, the TGI in the assay on OVCAR-5 ovarian is 21.3 µM; in the assay with NCI-H23 lung, 21.5 µM; in the assay with UACC-62 melanoma, 12.8 µM; in the assay on SF-268 CNS it was greater than 100 µM; with OVCAR-3 ovarian, 10.5 µM; in the assay with U251 CNS, 14.5 µM. The TGI was 14.7 µM in the assay on HT29 colon, 17.5 µM with COLO 205 colon and greater than 100 µM in the assay with RPMI-8226 leukemia.
With `CN(CCO)/N=N/c1nc[nH]c1C(N)=O`, the TGI in the assay with OVCAR-5 ovarian, in the assay on NCI-H23 lung, with UACC-62 melanoma, in the assay with CCRF-CEM leukemia, with SF-268 CNS and in the assay on OVCAR-3 ovarian was greater than 100 µM throughout. Further, the TGI in the assay with U251 CNS, in the assay on HT29 colon, with COLO 205 colon and in the assay on RPMI-8226 leukemia was greater than 100 µM throughout.
Regarding `CCOC(=O)Oc1ccc2c(c1)c(=O)c1c(NCCCN(CC)CC)ccc3nnn2c31`, the TGI worked out at 33.5 µM in the assay on OVCAR-5 ovarian; 29.3 µM in the assay with NCI-H23 lung; 29 µM with UACC-62 melanoma; 6.88 µM in the assay on CCRF-CEM leukemia; 28.2 µM in the assay on SF-268 CNS; 20 µM with OVCAR-3 ovarian. Also, the TGI amounted to 23.6 µM with U251 CNS, 15.9 µM with HT29 colon, 25.1 µM in the assay with COLO 205 colon and 10.1 µM in the assay on RPMI-8226 leukemia.
Regarding `Cc1nc(N(CCO)CCO)c2sc(=S)n(-c3ccccc3)c2n1`, the TGI with OVCAR-5 ovarian, in the assay on NCI-H23 lung, in the assay with UACC-62 melanoma, in the assay with CCRF-CEM leukemia, with SF-268 CNS and in the assay on OVCAR-3 ovarian was greater than 100 µM throughout. Further, the TGI in the assay with U251 CNS, with HT29 colon, in the assay on COLO 205 colon and in the assay on RPMI-8226 leukemia was greater than 100 µM in each case.
`NC(=S)N/N=C/c1ccc(OC(=O)COc2ccccc2Cl)cn1`: the TGI was 97.9 µM in the assay on OVCAR-5 ovarian; greater than 70.5 µM in the assay with NCI-H23 lung; 42.7 µM with UACC-62 melanoma; greater than 65.8 µM in the assay with CCRF-CEM leukemia; greater than 100 µM in the assay on SF-268 CNS; 99.1 µM with OVCAR-3 ovarian. The TGI with U251 CNS, with HT29 colon, with COLO 205 colon and with RPMI-8226 leukemia was greater than 100 µM in each case.
As for `O=c1oc2c(ccc3c(O)cccc32)c2c1CCCC2`, the TGI is greater than 100 µM with OVCAR-5 ovarian; greater than 100 µM in the assay with NCI-H23 lung; 27.2 µM in the assay with UACC-62 melanoma; greater than 100 µM in the assay with CCRF-CEM leukemia; 40.8 µM with SF-268 CNS; greater than 100 µM with OVCAR-3 ovarian. Moreover, the TGI with U251 CNS was 55.9 µM; in the assay with HT29 colon, greater than 100 µM; in the assay with COLO 205 colon it was greater than 100 µM; in the assay on RPMI-8226 leukemia, greater than 100 µM.
On to `Cc1ccc(S(=O)(=O)Nc2cc(Sc3ccccc3)c(O)c3ccccc23)cc1`, for which the GI50 is 7.11 µM in the assay on OVCAR-5 ovarian; 4.44 µM with NCI-H23 lung; 2.41 µM in the assay with UACC-62 melanoma; 2.4 µM in the assay on CCRF-CEM leukemia; 2.57 µM with SF-268 CNS; 2.85 µM in the assay on OVCAR-3 ovarian. Besides, the GI50 was 1.94 µM in the assay on U251 CNS, 20.6 µM in the assay on HT29 colon, 19.5 µM with COLO 205 colon and 3.4 µM in the assay on RPMI-8226 leukemia. The TGI came to 21.3 µM with OVCAR-5 ovarian; 22 µM in the assay on NCI-H23 lung; 6.72 µM with UACC-62 melanoma; 16.6 µM with CCRF-CEM leukemia; 8.07 µM with SF-268 CNS; 8.24 µM with OVCAR-3 ovarian. Also, the TGI in the assay on U251 CNS stood at 3.84 µM; in the assay on HT29 colon it was 53.1 µM; in the assay on COLO 205 colon it was 42.4 µM; in the assay on RPMI-8226 leukemia it was 22.8 µM.
Take `C/C([O-])=C(/c1nc(-c2ccc([N+](=O)[O-])o2)no1)[n+]1cc(C)ccc1C`: the TGI with OVCAR-5 ovarian is 37.5 µM; with NCI-H23 lung it was 24.9 µM; in the assay with UACC-62 melanoma, 21.3 µM; in the assay with CCRF-CEM leukemia it was greater than 100 µM; with SF-268 CNS, 62.3 µM; with OVCAR-3 ovarian it was 37.7 µM. The TGI was 21.7 µM in the assay on U251 CNS, 22.7 µM in the assay on HT29 colon, 15 µM with COLO 205 colon and 55.2 µM with RPMI-8226 leukemia.
As for `BrC1=CN2C[n+]3cc(Br)c4ccccc4c3N=C2c2ccccc21`, the TGI in the assay on OVCAR-5 ovarian was 48.7 µM; with NCI-H23 lung, 56.4 µM; with UACC-62 melanoma, 20.9 µM; with CCRF-CEM leukemia, 34.4 µM; in the assay with SF-268 CNS, 22.1 µM; in the assay on OVCAR-3 ovarian, 8.86 µM. The TGI in the assay with U251 CNS was determined as 21.9 µM; in the assay on HT29 colon, 38.6 µM; with COLO 205 colon, 23.1 µM; in the assay on RPMI-8226 leukemia, 30.5 µM.
With `CCOC(=O)/C(=N/Nc1ccc(Cl)cc1)N1C(=S)C=C(C)NN(C)C1=S`, the TGI was greater than 100 µM with OVCAR-5 ovarian; greater than 100 µM in the assay with NCI-H23 lung; 90.6 µM in the assay on UACC-62 melanoma; greater than 100 µM in the assay on CCRF-CEM leukemia; 85 µM in the assay with SF-268 CNS; greater than 100 µM in the assay on OVCAR-3 ovarian. Besides, the TGI in the assay with U251 CNS was 39.5 µM; in the assay on HT29 colon it was greater than 100 µM; in the assay on COLO 205 colon, greater than 100 µM; in the assay with RPMI-8226 leukemia it was greater than 100 µM.
In the case of `CCOC(=O)C(=O)Nc1cccc(C)c1C`, the TGI in the assay with OVCAR-5 ovarian, in the assay on NCI-H23 lung, in the assay with UACC-62 melanoma, in the assay with CCRF-CEM leukemia, in the assay with SF-268 CNS and with OVCAR-3 ovarian was greater than 100 µM throughout. Further, the TGI in the assay with U251 CNS, with HT29 colon, in the assay on COLO 205 colon and with RPMI-8226 leukemia was greater than 100 µM each time.
As to `COc1cc2nc(N3CCC[C@@H](NC4=CC(=O)c5ccccc5C4=O)C3)nc(N)c2cc1OC`, the GI50 in the assay on OVCAR-5 ovarian was 2.26 µM; in the assay with NCI-H23 lung, 1.99 µM; in the assay with UACC-62 melanoma, 2.01 µM; with CCRF-CEM leukemia, 1.96 µM; with SF-268 CNS, 1.92 µM; in the assay with OVCAR-3 ovarian, 2.03 µM. Further, the GI50 in the assay with U251 CNS is 1.86 µM; in the assay on HT29 colon it was 1.88 µM; in the assay on COLO 205 colon, 1.93 µM; in the assay on RPMI-8226 leukemia, 2.33 µM. Also, the TGI in the assay on OVCAR-5 ovarian is 4.85 µM; with NCI-H23 lung, 4.3 µM; in the assay with UACC-62 melanoma, 4.25 µM; in the assay on CCRF-CEM leukemia it was 4.56 µM; with SF-268 CNS, 3.81 µM; with OVCAR-3 ovarian it was 3.81 µM. The TGI with U251 CNS stood at 3.46 µM; in the assay on HT29 colon it was 3.82 µM; in the assay with COLO 205 colon, 3.55 µM; with RPMI-8226 leukemia it was 5.58 µM.
